Legend:
[1] = tested on: Arachidonic acid-induced ear swelling; experiment: Arachidonic acid-induced mouse ear inflammation (ear swelling); assay type: in vivo, male Balb/c mice; conditions: for antiinflammatory activity (mouse ear edema): p.o.
Method: In the following Examples male Balb/c mice (20-28 g) were used. All mice were obtained from Charles River Breeding Laboratories, Kingston, N.Y. Within a single experiment, mice were sex and age matched.
The compounds of Formula (I), indomethacin, naproxen, and ibuprofen were each used as the free base. The compounds were homogenized in 0.5% tagacanth. Compounds were administered by gavage at the indicated dose in a final volume of 10 ml/kg. The compounds of Formula (I) were solubilized in dimethylacetamide and diluted with olive oil for subcantaneous administration.
Arachidonic acid in acetone (2 mg/20 μl) was applied to the inner surface of the left ear. The thickness of both ears was then measured with a dial micrometer one hour after treatment, and the […] were expressed as the change in thickness (10^-3 cm) between treated and untreated ears.
Test compounds were given orally in 0.5% tragacanth at the times indicated in the text prior to the topical application of arachidonic acid.
Parenteral administration of compound was accomplished by subcutaneous injection of solution as indicated.

[2] = tested on: LTC4 production by human monocytes; experiment: LTC4 production by human monocytes; assay type: cell-based; conditions: Monocyte, A23187-stimulated, 3 hours, drug added 30 minutes prior
Method: (§1) For in vitro experiments, compounds were dissolved at appropriate concentrations in ethanol (final concentration μ1.0%) and then diluted to final concentrations using the buffers indicated in the text.
One of the compounds of Formula (I), i.e., Compound Number 8 from Table 1, was evaluated for its ability to inhibit the production of LTC4 by human monocytes according to the following protocol.
Human monocytes were prepared from whole blood supplied by the American Red Cross. The blood was fractionated by a two-step procedure employing sedimentation on Ficoll followed by sedimentation on Percoll. The mononuclear cell fraction recovered was composed of 80-90% monocytes with the remainder of the cells being predominant lymphocytes. The monocytes were plated at 1×10^6 cells per well in a Costar 24 well tissue culture plat and allowed to adhere for one hour at 37° C. Non-adherent cells were removed by washing. The cells were stimulated with […] of A23187 calcium ionophore for 3 hours at 37° C. to induce LTC-4 produced when drugs were evaluated. They were added to the cells 30 minutes prior to the A23187. Supernatants were collected, clarified by centrifugation and store frozed at -20° C. until assay. The LTC-4 content was determined by using a New England Nuclear Leukotriene C-4 (^3 H) RIA Kit as per instructions.

[3] = molecular target: T1, 5-lipoxygenase (Rattus norvegicus, UniProt P12527); experiment: 5-lipoxygenase activity: 5-HETE production by RBL-1 high speed supernatant; assay type: biochemical; conditions: RBL1 high speed supernatant; read-out: 5LO IC50 (5-HETE Production)
T1 construct: The activities of these enzymes in extracts of RBL-1 cells were assayed; host or cells: RBL-1 cells, supernatant of broken cell extract
T1 sequence (P12527 1-673): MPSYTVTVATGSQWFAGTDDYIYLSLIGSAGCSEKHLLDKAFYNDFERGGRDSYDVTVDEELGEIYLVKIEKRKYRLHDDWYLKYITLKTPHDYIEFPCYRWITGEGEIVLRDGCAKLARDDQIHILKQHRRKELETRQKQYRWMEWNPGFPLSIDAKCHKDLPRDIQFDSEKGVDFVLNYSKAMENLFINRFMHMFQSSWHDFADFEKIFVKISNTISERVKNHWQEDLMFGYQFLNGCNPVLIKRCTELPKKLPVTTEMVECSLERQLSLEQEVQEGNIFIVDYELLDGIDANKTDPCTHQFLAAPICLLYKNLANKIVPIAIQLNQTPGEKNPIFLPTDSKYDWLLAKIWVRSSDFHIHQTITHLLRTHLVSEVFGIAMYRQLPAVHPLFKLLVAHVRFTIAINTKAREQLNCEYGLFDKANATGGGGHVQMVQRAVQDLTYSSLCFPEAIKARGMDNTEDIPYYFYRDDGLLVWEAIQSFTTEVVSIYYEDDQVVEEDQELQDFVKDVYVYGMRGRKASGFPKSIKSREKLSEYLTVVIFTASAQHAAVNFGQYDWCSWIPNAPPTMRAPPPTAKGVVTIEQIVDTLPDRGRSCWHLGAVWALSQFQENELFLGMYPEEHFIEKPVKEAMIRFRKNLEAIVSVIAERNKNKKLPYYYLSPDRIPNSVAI
Method: as §1
(§2) The activities of these enzymes in extracts of RBL-1 cells were assayed using the method of Jakschik and Lee, Nature, 287, 51-52 (1980). RBL-1 cells were obtained from the American Type Culture Collection (#CRL 1378) and were grown at 37° C. (5% CO2 in air) in spinner culture in MEM supplemented with 10% heat inactivated fetal calf serum. Harvested cells were washed with 50 mM sodium phosphate buffer, pH 7.0, containing 1 mM EDTA and 0.1% galatin, resuspended in fresh buffer (5×10^7 cells/ml) and disrupted by nitrogen cavitation using the Parr bomb at 750 psi for 10 min. The broken cell extract was then centrifuged at 10,000×g for 60 minutes (min). Aliquots (0.25 mls) of the supernatant were preincubated with or without drugs for 10 min, after which 10 μl CaCl2 (2 mM) of 2.5 mM arachidonic acid-1-^14 C (final concentration was […]; specific activity 20,000 dpm/nmole). After incubation for 5 min at […], the reaction was terminated by addition of 2 volumes (0.5 ml) ice cold acetone and the sample was allowed to deproteinize on ice for 10 min prior to centrifugation at 1,000×gfor 10 min. The deproteinized supernatant was adjusted to pH 3.5 with 2N formic acid and extracted with 2 volumes of ice cold ethyl acetate. The extracted samples were dried under argon, redissolved in ethyl acetate and applied to Whatman LK5D thin layer chromatography (TLC) plates which were developed using the A-9 solvent system [organic phase of ethyl acetate:2,2,5-trimethylpentane:acetic acid:water (110:50:20:10)] described by Hamberg and Samuelsson, J. Bio. Chem., 241, 257-263 (1966). Arachidonic acid, 5-HETE, LTB4 and PGD2 were quantified with a Berthold LB 2832 autoscanner.
(§3) Drug-induced effects on enzyme activities are described as the concentration of drug causing a 50% inhibition of metabolite synthesis (IC50).

[4] = molecular target: T1, 5-lipoxygenase; experiment: 5-lipoxygenase activity: LTB4 production by RBL-1 high speed supernatant; assay type: biochemical; conditions: for IC50: RBL1 high speed supernatant, read-out: 5LO IC50 (LTB4 Production)
Method: as §1, §2, §3

[5] = tested on: Arachidonic acid-induced ear swelling; experiment: Arachidonic acid-induced mouse ear inflammation (ear swelling); assay type: in vivo, male Balb/c mice
[6] = tested on: psoriasis; conditions: in vivo; cited from earlier work
[7] = tested on: lipoxygenase; conditions: in vitro; cited from earlier work
[8] = tested on: area of infarction following coronary occlusion; conditions: dogs; cited from earlier work
[9] = tested on: LTB4 and 5-HETE production; conditions: in vitro; cited from earlier work
[10] = tested on: rheumatoid arthritis; conditions: preliminary observation; cited from earlier work
[11] = 50 mg/kg s.c. or i.p., 2 mg arachidonic acid, 1 hour, * p .05, ** p .01, *** p .001

Row | Compound | IC50 [3] [µM] | IC50 [4] [µM] | % Inhibition of Ear Swelling [1, 11] [%] | other results
1 | COc1ccc2cc([C@H](C)C(=O)O)ccc2c1 [naproxen, reference compound] |  |  |  | antiinflammatory activity (mouse ear edema) ([1]; 100 mg/kg): did not exhibit detectable antiinflammatory activity
2 | Fc1ccc(-c2[nH]c(S)nc2-c2ccncc2)cc1 [Compound 8] | 17 | 1.5 |  | IC50 [2]: 0.8 µM
3 | COc1ccc(-c2nc(C(F)(F)F)[nH]c2-c2ccc(OC)cc2)cc1 [Compound 6] | 0.7 | 1.1 |  | % Inhibition of Ear Swelling ([1]; 50 mg/kg, oral dosing (p.o.), ** p .01): 28%
4 | CCSc1nc(-c2ccc(OC)cc2)c(-c2ccc(OC)cc2)n1CC [Compound 3] | 10.4 | 8.4 |  | 
5 | Fc1ccc(-c2[nH]c(SC(F)(F)C(F)F)nc2-c2ccncc2)cc1 [Compound 9] | 95 |  |  | 
6 | COc1ccc2c(c1)c(CC(=O)O)c(C)n2C(=O)c1ccc(Cl)cc1 [indomethacin, reference compound] |  |  |  | antiinflammatory activity (mouse ear edema) ([1]; 10 mg/kg): did not exhibit detectable antiinflammatory activity; reduction of inflammation (mouse ear model) ([1]; arachidonic acid-induced): did not reduce inflammation or cell infiltration; inhibition of 5-lipoxygenase products (RBL-1 extract) ([4]; concentrations up to 10^-4 M): inactive; reduction of cell infiltration (mouse ear model) [5]: did not reduce inflammation or cell infiltration
7 | COc1ccc(-c2nc(NC#N)[nH]c2-c2ccc(OC)cc2)cc1 [Compound 4, 4,5-Bis(4-methoxyphenyl)-2-cyanamido-imidazole or 4,5-Bis(4-methoxyphenyl)-2-amino-1-cyano-imidazole] | 3.1 | 1.5 | 46 | 
8 | N#CNc1nc(-c2ccc(F)cc2)c(-c2ccc(F)cc2)[nH]1 [Compound 5, 4,5-Bis(4-fluorophenyl)-2-cyanamido-imidazole or 4,5-Bis(4-fluorophenyl)-2-amino-1-cyano-imidazole] | 8 | 1 | 59 | 
9 | CC(C)Cc1ccc(C(C)C(=O)O)cc1 (centres unmarked) [ibuprofen, reference compound] |  |  |  | antiinflammatory activity (mouse ear edema) ([1]; 250 mg/kg): did not exhibit detectable antiinflammatory activity
10 | CC(C(=O)O)c1ccc2oc(-c3ccc(Cl)cc3)nc2c1 (centres unmarked) [benoxaprofen] |  |  |  | effect on psoriasis [6]: promising effect; lipoxygenase inhibitory activity [7]: in vitro lipoxygenase inhibitory activity
11 | NC1=NN(c2cccc(C(F)(F)F)c2)CC1 [BW755-C] |  |  |  | area of infarction following coronary occlusion [8]: reduced
12 | Fc1ccc(-c2nc(-c3ccc(F)cc3)c(-c3ccc(F)cc3)[nH]2)cc1 [Compound 7] | 10 | 10 | 15 | 
13 | COc1ccc(-c2nc(SC)n(C)c2-c2ccc(OC)cc2)cc1 [Compound 1] | 13 | 13 | 51 | 
14 | O=C(O)c1cc(/N=N/c2ccc(S(=O)(=O)Nc3ccccn3)cc2)ccc1O [sulfasalazine] |  |  |  | inhibition of LTB4 and 5-HETE production [9]: inhibit LTB4 and 5-HETE production in vitro; efficacy in rheumatoid arthritic patients [10]: efficacy, including remission
15 | O=S(=O)(c1nc(-c2ccc(F)cc2)c(-c2ccc(F)cc2)[nH]1)C(F)(F)C(F)F [Compound 2] | 16 | 6.6 | 41 | 

Source: patent US4686231A, “Inhibition of 5-lipoxygenase products” (SmithKline Beckman Corporation, priority 1986, dated 1987)
